The source of these data is patent EP2307018B1, “OXYMATRINE COMPOSITIONS AND USE THEREOF FOR TREATING AND PREVENTING CHRONIC INFECTIOUS DISEASES” (Chia, John K.S., priority 2008, dated 2010).

For assay [1], the system named is enterovirus. Nature of the assay: case report Example 5, treatment of chronic fatigue. The following applies: before oxymatrine. It is filed as in vivo, human. As to the method: A person developed debilitating fatigue, sore throat, oral ulcers, vertigo, headaches and cognitive dysfunction two months after having a flu-like illness. […] Approximately four years later, the patient started taking oxymatrine. After an initial increase of gastrointestinal symptoms for the first two weeks, the patient tolerated 500 mg per day of oxymatrine.
The symptoms continued for two weeks and resolved after stopping oxymatrine. […] They continued to improve for 12 months after taking the medication.

The test system of assay [2] is coxsackievirus B. The following applies: in vitro; mechanism not defined; cited from earlier work.
Assay [3] relates to Coxsackievirus B. The following applies: intravenous matrine; 0% in the placebo-treated group; cited from earlier work.
The subject of assay [4] is echoviruses. The following applies: in vitro; mechanism not defined; cited from earlier work.

`CC(C)[C@H](N)C(=O)OCCOCn1cnc2c(=O)[nH]c(N)nc21` [valacyclovir, reference compound]: the clinical response result in assay [1] was “did not respond”.

For the compound `O=C1CCC[C@@H]2[C@H]3CCCN4CCC[C@@H](CN12)[C@@H]34` [matrine], the “growth inhibition of coxsackievirus B in cell cultures” value in assay [2] is given as “growth inhibition”. In assay [3], the “patients with improvement of cardiac function, increase in lymphocyte number and function, and loss of viral markers” value is recorded as “more than 90%”. For the same compound, the “growth inhibition of echoviruses in cell cultures” value in assay [4] is listed as “growth inhibition”.
